Patent US20170119776A1, “CHIRAL 2,5-DISUBSTITUTED CYCLOPENTANECARBOXYLIC ACID DERIVATIVES AND USE THEREOF” (BAYER PHARMA AKTIENGESELLSCHAFT, priority 2014, published 2017)
pIC50: −log10 of the molar value.

Columns and labels:
Type in all cases: biochemical
[1] = biological target: T1, MMP-12 of the rat (Rattus norvegicus, UniProt Q63341); assay: In vitro MMP-12 inhibition test of the rat
T1 construct: MMP-12 of the rat (Uniprot NP_446415.1; construct L96-V277); made in house; host or cells: E. coli (BL21), pDEco7 vector
T1 sequence (Q63341 96-277): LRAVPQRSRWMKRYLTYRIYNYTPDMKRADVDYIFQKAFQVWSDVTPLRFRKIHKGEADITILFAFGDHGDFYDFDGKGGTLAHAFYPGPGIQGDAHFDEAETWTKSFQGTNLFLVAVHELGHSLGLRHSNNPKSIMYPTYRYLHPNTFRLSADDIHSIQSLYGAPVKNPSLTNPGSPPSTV
Source text: (§1) The activity strength of the compounds according to the invention towards other MMPs (and therefore their selectivity) is likewise ascertained in in vitro inhibition tests. The MMP-mediated amidolytic cleavage of a suitable peptide substrate also leads here to a fluorescent light increase. The signal intensity of the fluorescent light is directly proportional to the enzyme activity. The active concentration of a test compound at which half of the enzyme is inhibited (50% signal intensity of the fluorescent light) is given as IC50 value.
MMP-12 of the rat (Uniprot NP_446415.1; construct L96-V277) is expressed with an additional N-terminal His-Tag and a consecutive TEV cleavage sequence by means of a pDEco7 vector in E. coli (BL21). The thus recombinantly expressed protein forms an intracellular insoluble protein compartment (so-called inclusion body). This is solubilized after separation and intensive washing under denaturing conditions. For this, the inclusion body pellet fraction from a 250 ml E. coli culture is taken up in a volume of 120 ml of buffer A (50 mM Tris pH 7.4, 100 mM NaCl, 0.03 mM ZnCl2, 10 mM CaCl2, 8 M urea). The soluble protein is renatured by in each case dialysing 60 ml of the sample several times at 4-8° C. against buffer B (50 mM Tris pH 7.4, 100 mM NaCl, 0.03 mM ZnCl2, 10 mM CaCl2). After the dialysis, the sample is centrifuged (25 000×g). The folded-back protein is obtained in the supernatant with a yield of 3.7 mg per 250 ml E. coli culture. The thus obtained protein is enzymatically active without further purification operations or protease-mediated cleavage processes.
(§2) 1 μl of the test compound to be analysed (as a solution in DMSO, suitable concentrations e.g. 1 nM to 30 μM) is pipetted into 24 μl of MMP-12 protein (final concentration e.g. 1 nM) in reaction buffer (50 mM Tris/HCl pH 7.5, 10 mM CaCl2, 150 mM NaCl, 0.05% Brij®-35) in a white 384-hole microtiter plate (MTP). The enzymatic reaction is started by adding the intramolecularly quenched substrate Mca-Pro-Leu-Gly-Leu-Dpa(Dnp)-Ala-Arg-NH2 (final concentration e.g. 5 μM; R&D Systems, ES-001), such that a total test volume of 50 μl results. The progress of the MMP-12 reaction is measured by measuring the fluorescence intensity (excitation 320 nm, emission 410 nm) over a suitable period (e.g. over 120 min at a temperature of 32° C.).
(§3) Tables 3A and 3B below give the IC50 values from these tests for the inhibition of rodent MMPs for representative embodiment examples of the present invention and also for two structurally related comparison compounds from the prior art (as racemate and separated enantiomer)→(in part as average values from several independent individual determinations and rounded to two significant places). The IC50 values were determined for racemates and enantiomers from differently generated DMSO stock solutions. Whereas an automatically created DMSO stock solution from the internal substance logistics was used for racemates by means of a standard method, in the case of enantiomers, in each case a freshly produced, manually prepared DMSO stock solution was used for a more precise direct comparison of the enantiomers with one another.

[2] = biological target: T2, MMP-8 of the rat (Rattus norvegicus, UniProt O88766); assay: In vitro MMP-8 inhibition test of the rat
T2 construct: purchased R&D Systems 3245-MP
T2 sequence (O88766 102-466): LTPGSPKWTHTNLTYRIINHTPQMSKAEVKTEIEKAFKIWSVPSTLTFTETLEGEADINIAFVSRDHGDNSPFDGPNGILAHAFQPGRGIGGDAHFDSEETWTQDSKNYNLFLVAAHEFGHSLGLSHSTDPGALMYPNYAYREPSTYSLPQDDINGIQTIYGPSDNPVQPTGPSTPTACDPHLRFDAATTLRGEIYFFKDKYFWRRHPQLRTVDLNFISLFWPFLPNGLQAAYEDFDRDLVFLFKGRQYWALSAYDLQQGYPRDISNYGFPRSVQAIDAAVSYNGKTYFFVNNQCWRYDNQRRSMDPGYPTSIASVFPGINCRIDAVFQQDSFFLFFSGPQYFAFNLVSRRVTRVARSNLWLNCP
Source text: as §1
as §2, with “Recombinant MMP-8 of the rat (R&D Systems, 3245-MP) is chemically activated in accordance with the manufacturer's instructions using APMA. […]” for “1 μl”, “of activated enzyme” for “of MMP-12 protein”, “substrate Mca-Lys-Pro-Leu-Gly-Leu-Dpa(Dnp)-Ala-Arg-NH2” for “substrate Mca-Pro-Leu-Gly-Leu-Dpa(Dnp)-Ala-Arg-NH2”, “Systems, ES-010),” for “Systems, ES-001),”, “the MMP-8” for “the MMP-12”
as §3

[3] = biological target: T3, MMP-14 (Homo sapiens, UniProt P50281); assay: In vitro MMP-14 inhibition test
T3 construct: purchased R&D Systems 918-MP
Source text: as §1
Recombinant MMP-14 (R&D Systems, 918-MP) is enzymatically activated in accordance with the manufacturer's instructions using recombinant furin (R&D Systems, 1503-SE). 1 μl of the test compound to be analysed (as a solution in DMSO, suitable concentrations e.g. 1 nM to 30 μM) is pipette into 24 μl of activated enzyme (final concentration e.g. 0.5 nM) in reaction buffer (50 mM Tris/HCl pH 7.5, 10 mM CaCl2, 150 mM NaCl, 0.05% Brij®-35) in a white 384-hole microtiter plate (MTP). The enzymatic reaction is started by adding the intramolecularly quenched substrate Mca-Lys-Pro-Leu-Gly-Leu-Dpa(Dnp)-Ala-Arg-NH2 (final concentration e.g. 5 μM; R&D Systems, ES-010), such that a total test volume of 50 μl results. The progress of the MMP-14 reaction is measured by measuring the fluorescence intensity (excitation 320 nm, emission 410 nm) over a suitable period (e.g. over 120 min at a temperature of 32° C.).
The IC50 values were determined for racemates and enantiomers from differently generated DMSO stock solutions. Whereas an automatically produced DMSO stock solution from the internal substance logistics was used for racemates by means of a standard method, in the case of enantiomers a freshly produced, manually prepared DMSO stock solution was used in each case for a more precise direct comparison of the enantiomers with one another.

| pIC50 [1] | pIC50 [2] | pIC50 [3] | Compound |
| --- | --- | --- | --- |
| 7.61 | 5.98 | 5.89 | CCCCCOc1ccc(C(=O)CC(CCn2nnc3ccccc3c2=O)C(=O)O)cc1 (single isomer, unassigned; enantiomer 1) [Comparative Example B-2, (+)-4-Oxo-2-[2-(4-oxo-1,2,3-benzotriazin-3(4H)-yl)ethyl]-4-[4-(pentyloxy)phenyl]butanoic acid (enantiomer 1)] |
| > 9.21 | 7.41 | 7.82 | O=C(O)[C@H]1[C@H](Cn2nnc3ccccc3c2=O)CC[C@@H]1C(=O)c1ccc(OCc2ccccc2)cc1 [Example 2, (+)-(1S,2S,5R)-2-[4-(Benzyloxy)benzoyl]-5-[(4-oxo-1,2,3-benzotriazin-3(4H)-yl)methyl]cyclopentanecarboxylic acid] |
| > 9.21 | 8.85 | 8.92 | O=C(O)[C@@H]1[C@@H](Cn2nnc3ccccc3c2=O)CC[C@H]1C(=O)c1ccc(-c2ccc(Cl)cc2)cc1 (single isomer, unassigned; enantiomer 2) [Comparative Example A-3, (1RS,2RS,5SR)-2-[(4′-Chlorobiphenyl-4-yl)carbonyl]-5-[(4-oxo-1,2,3-benzotriazin-3(4H)-yl)methyl]cyclopentanecarboxylic acid (enantiomer 2)] |
| 7.53 | 5.46 | 5.42 | CCCCCOc1ccc(C(=O)CC(CCn2nnc3ccccc3c2=O)C(=O)O)cc1 (racemic) [Comparative Example B-1, (+/−)-4-Oxo-2-[2-(4-oxo-1,2,3-benzotriazin-3(4H)-yl)ethyl]-4-[4-(pentyloxy)phenyl]butanoic acid (racemate)] |
| > 9.21 | 8.85 | 8.54 | O=C(O)[C@H]1[C@H](Cn2nnc3ccccc3c2=O)CC[C@@H]1C(=O)c1ccc(-c2ccc(Cl)cc2)cc1 (racemic) [Comparative Example A-1, (1RS,2RS,5SR)-2-[(4′-chlorobiphenyl-4-yl)carbonyl]-5-[(4-oxo-1,2,3-benzotriazin-3(4H)-yl)methyl]cyclopentanecarboxylic acid (racemate)] |
| > 9.00 | 7.00 | 7.57 | O=C(O)[C@H]1[C@H](Cn2nnc3ccccc3c2=O)CC[C@@H]1C(=O)c1ccc(OCc2ccccc2)cc1 (racemic) [Example 1, (+/−)-(1RS,2RS,5SR)-2-[4-(Benzyloxy)benzoyl]-5-[(4-oxo-1,2,3-benzotriazin-3(4H)-yl)methyl]cyclopentanecarboxylic acid (racemate)] |
